Experimental data: ChEMBL document CHEMBL4507293 (2021); call rule not given here

What was measured:
[1] = target: Sigma intracellular receptor 2 (Homo sapiens, UniProt Q5BJF2); assay: GPCRScan assay: inhibition of Sigma 2; design: radioligand conc. used [nm] 5.0, parental cells HEKT
[2] = target: High affinity 3',5'-cyclic-AMP phosphodiesterase 7A (Homo sapiens, UniProt Q13946); assay: Biochemical assay (PDE7A)
[3] = target: Dual 3',5'-cyclic-AMP and -GMP phosphodiesterase 11A (Homo sapiens, UniProt Q9HCR9); assay: Biochemical assay (PDE11A)
[4] = target: Tyrosine-protein kinase ABL2 (Homo sapiens) (UniProt P42684); details: Compound concentration 100.0 nM
[5] = target: Activin receptor type-2A (Homo sapiens) (UniProt P27037); details: Compound concentration 100.0 nM
[6] = target: Activin receptor type-2B (Homo sapiens) (UniProt Q13705); details: Compound concentration 100.0 nM
[7] = target: RAC-gamma serine/threonine-protein kinase (Homo sapiens) (UniProt Q9Y243); details: Compound concentration 100.0 nM
[8] = tested on: ALK tyrosine kinase receptor (Homo sapiens), Q9UM73 [C1156Y]; details: Compound concentration 100.0 nM
[9] = target: Mitogen-activated protein kinase kinase kinase 5 (Homo sapiens) (UniProt Q99683); details: Compound concentration 100.0 nM
[10] = target: Bone morphogenetic protein receptor type-1A (Homo sapiens) (UniProt P36894); details: Compound concentration 100.0 nM
[11] = target: Serine/threonine-protein kinase B-raf (Homo sapiens) (UniProt P15056); details: Compound concentration 100.0 nM
[12] = target: Serine/threonine-protein kinase BRSK1 (Homo sapiens) (UniProt Q8TDC3); details: Compound concentration 100.0 nM
[13] = target: Calcium/calmodulin-dependent protein kinase type 1B (Homo sapiens) (UniProt Q6P2M8); details: Compound concentration 100.0 nM
[14] = target: Calcium/calmodulin-dependent protein kinase type II subunit beta (Homo sapiens) (UniProt Q13554); details: Compound concentration 100.0 nM
[15] = target: Cyclin-dependent kinase 9 (Homo sapiens) (UniProt P50750); details: Compound concentration 100.0 nM
[16] = target: Dual specificity protein kinase CLK2 (Homo sapiens) (UniProt P49760); details: Compound concentration 100.0 nM
[17] = target: Macrophage colony-stimulating factor 1 receptor (Homo sapiens) (UniProt P07333); details: Compound concentration 100.0 nM
[18] = target: Serine/threonine-protein kinase DCLK3 (Homo sapiens) (UniProt Q9C098); details: Compound concentration 100.0 nM
[19] = target: Myotonin-protein kinase (Homo sapiens) (UniProt Q09013); details: Compound concentration 100.0 nM
[20] = tested on: Epidermal growth factor receptor (Homo sapiens), P00533 [L858R]; details: Compound concentration 100.0 nM
[21] = tested on: Epidermal growth factor receptor (Homo sapiens), P00533 [T790M]; details: Compound concentration 100.0 nM
[22] = target: Receptor tyrosine-protein kinase erbB-2 (Homo sapiens) (UniProt P04626); details: Compound concentration 100.0 nM
[23] = target: Vascular endothelial growth factor receptor 1 (Homo sapiens) (UniProt P17948); details: Compound concentration 100.0 nM
[24] = tested on: Receptor-type tyrosine-protein kinase FLT3 (Homo sapiens), P36888 [D835Y]; details: Compound concentration 100.0 nM
[25] = tested on: Receptor-type tyrosine-protein kinase FLT3 (Homo sapiens), P36888 [N841I]; details: Compound concentration 100.0 nM
[26] = target: Receptor-type tyrosine-protein kinase FLT3 (Homo sapiens) (UniProt P36888); details: Compound concentration 100.0 nM
[27] = tested on: Mast/stem cell growth factor receptor Kit (Homo sapiens), P10721 [V559D,V654A]; details: Compound concentration 100.0 nM
[28] = target: Dual specificity mitogen-activated protein kinase kinase 2 (Homo sapiens) (UniProt P36507); details: Compound concentration 100.0 nM
[29] = target: Misshapen-like kinase 1 (Homo sapiens) (UniProt Q8N4C8); details: Compound concentration 100.0 nM
[30] = target: Serine/threonine-protein kinase OSR1 (Homo sapiens) (UniProt O95747); details: Compound concentration 100.0 nM
[31] = target: Platelet-derived growth factor receptor beta (Homo sapiens) (UniProt P09619); details: Compound concentration 100.0 nM
[32] = target: Serine/threonine-protein kinase PLK2 (Homo sapiens) (UniProt Q9NYY3); details: Compound concentration 100.0 nM
[33] = target: Protein kinase C delta type (Homo sapiens) (UniProt Q05655); details: Compound concentration 100.0 nM
[34] = target: Protein kinase C iota type (Homo sapiens) (UniProt P41743); details: Compound concentration 100.0 nM
[35] = target: Protein-tyrosine kinase 2-beta (Homo sapiens) (UniProt Q14289); details: Compound concentration 100.0 nM
[36] = target: RAF proto-oncogene serine/threonine-protein kinase (Homo sapiens) (UniProt P04049); details: Compound concentration 100.0 nM
[37] = target: Proto-oncogene tyrosine-protein kinase ROS (Homo sapiens) (UniProt P08922); details: Compound concentration 100.0 nM
[38] = target: Ribosomal protein S6 kinase alpha-3 (Homo sapiens) (UniProt P51812); details: Compound concentration 100.0 nM
[39] = target: Ribosomal protein S6 kinase alpha-2 (Homo sapiens) (UniProt Q15349); details: Compound concentration 100.0 nM
[40] = target: Serine/threonine-protein kinase TBK1 (Homo sapiens) (UniProt Q9UHD2); details: Compound concentration 100.0 nM
[41] = target: Activated CDC42 kinase 1 (Homo sapiens) (UniProt Q07912); details: Compound concentration 100.0 nM
[42] = target: Tyrosine-protein kinase TXK (Homo sapiens) (UniProt P42681); details: Compound concentration 100.0 nM
[43] = target: Non-receptor tyrosine-protein kinase TYK2 (Homo sapiens) (UniProt P29597); details: Compound concentration 100.0 nM
[44] = target: Tyrosine-protein kinase Yes (Homo sapiens) (UniProt P07947); details: Compound concentration 100.0 nM
[45] = target: Alpha-1B adrenergic receptor (Homo sapiens) (UniProt P35368); details: Compound concentration 10.0 uM

Chain of Sigma intracellular receptor 2 (Q5BJF2 whole entry): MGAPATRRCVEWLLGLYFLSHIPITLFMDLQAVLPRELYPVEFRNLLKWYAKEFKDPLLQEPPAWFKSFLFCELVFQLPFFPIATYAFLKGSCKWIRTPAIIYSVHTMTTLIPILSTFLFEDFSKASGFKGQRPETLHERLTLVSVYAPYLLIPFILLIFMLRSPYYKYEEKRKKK
Chain of Myotonin-protein kinase (Homo sapiens) (Q09013 whole entry): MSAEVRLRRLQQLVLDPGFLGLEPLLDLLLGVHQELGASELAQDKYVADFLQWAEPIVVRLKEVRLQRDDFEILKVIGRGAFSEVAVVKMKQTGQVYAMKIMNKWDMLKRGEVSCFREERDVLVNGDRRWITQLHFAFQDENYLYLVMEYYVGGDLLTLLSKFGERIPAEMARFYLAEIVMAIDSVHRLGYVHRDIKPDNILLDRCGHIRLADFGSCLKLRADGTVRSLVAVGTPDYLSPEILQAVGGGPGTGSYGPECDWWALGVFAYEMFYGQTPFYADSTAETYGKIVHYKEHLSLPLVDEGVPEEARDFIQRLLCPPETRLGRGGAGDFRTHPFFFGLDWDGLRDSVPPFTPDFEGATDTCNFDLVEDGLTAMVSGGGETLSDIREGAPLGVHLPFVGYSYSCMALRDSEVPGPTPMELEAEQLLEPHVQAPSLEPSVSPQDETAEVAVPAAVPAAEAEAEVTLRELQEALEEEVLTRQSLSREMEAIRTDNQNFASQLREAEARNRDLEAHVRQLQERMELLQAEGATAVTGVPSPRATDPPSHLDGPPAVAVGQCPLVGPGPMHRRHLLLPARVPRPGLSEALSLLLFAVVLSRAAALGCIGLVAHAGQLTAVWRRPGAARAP
Chain of Non-receptor tyrosine-protein kinase TYK2 (Homo sapiens) (P29597 whole entry): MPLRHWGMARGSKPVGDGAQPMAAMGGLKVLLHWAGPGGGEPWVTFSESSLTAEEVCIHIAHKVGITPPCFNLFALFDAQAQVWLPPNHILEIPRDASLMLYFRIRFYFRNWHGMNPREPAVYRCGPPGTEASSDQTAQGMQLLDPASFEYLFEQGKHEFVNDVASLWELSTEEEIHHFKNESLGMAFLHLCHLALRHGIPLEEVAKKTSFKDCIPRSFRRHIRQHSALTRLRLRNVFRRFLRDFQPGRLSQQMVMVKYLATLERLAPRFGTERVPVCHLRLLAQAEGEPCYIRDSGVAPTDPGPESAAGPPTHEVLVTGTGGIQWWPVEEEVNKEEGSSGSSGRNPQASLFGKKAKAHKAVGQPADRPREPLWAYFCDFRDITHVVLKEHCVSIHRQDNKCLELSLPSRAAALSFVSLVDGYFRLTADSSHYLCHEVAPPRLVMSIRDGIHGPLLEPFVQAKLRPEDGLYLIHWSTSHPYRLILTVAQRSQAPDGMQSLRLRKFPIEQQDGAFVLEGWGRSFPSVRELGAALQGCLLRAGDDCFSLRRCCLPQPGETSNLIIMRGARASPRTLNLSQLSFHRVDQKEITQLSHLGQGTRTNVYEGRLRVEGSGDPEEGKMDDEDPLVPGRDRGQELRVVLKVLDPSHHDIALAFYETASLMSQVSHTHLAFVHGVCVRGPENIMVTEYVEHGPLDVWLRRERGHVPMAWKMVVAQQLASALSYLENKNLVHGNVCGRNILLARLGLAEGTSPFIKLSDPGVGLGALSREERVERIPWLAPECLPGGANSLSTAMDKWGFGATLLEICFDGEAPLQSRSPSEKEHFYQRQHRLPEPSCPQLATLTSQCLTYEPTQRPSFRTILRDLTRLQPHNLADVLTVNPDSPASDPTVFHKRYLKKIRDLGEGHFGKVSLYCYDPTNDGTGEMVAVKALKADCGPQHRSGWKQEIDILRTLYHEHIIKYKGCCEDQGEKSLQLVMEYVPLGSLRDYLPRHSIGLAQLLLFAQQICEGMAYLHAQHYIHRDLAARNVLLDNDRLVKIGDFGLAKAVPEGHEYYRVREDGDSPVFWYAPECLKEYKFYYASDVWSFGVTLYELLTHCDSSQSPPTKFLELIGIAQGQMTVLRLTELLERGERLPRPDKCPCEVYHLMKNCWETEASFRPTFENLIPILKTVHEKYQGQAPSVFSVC
Chain of Serine/threonine-protein kinase TBK1 (Homo sapiens) (Q9UHD2 whole entry): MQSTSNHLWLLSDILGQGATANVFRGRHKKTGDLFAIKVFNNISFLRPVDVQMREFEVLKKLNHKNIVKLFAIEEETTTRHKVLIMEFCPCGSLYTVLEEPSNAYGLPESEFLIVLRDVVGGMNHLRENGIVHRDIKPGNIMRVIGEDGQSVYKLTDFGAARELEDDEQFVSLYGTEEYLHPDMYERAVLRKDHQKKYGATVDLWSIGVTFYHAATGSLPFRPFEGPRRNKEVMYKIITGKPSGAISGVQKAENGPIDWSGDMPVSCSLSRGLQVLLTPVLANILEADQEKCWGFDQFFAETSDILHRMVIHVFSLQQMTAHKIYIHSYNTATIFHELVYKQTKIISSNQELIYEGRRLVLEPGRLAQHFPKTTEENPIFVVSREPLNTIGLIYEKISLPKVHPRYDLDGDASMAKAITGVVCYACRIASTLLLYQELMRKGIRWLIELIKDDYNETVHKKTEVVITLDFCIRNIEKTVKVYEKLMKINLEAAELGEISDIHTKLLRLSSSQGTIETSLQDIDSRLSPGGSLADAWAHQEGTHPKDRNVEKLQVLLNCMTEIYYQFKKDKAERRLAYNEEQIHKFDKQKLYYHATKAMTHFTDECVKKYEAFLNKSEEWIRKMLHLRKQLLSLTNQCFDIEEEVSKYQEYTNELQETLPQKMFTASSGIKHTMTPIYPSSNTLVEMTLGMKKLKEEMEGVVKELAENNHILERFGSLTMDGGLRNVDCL
Chain of Dual specificity protein kinase CLK2 (Homo sapiens) (P49760 whole entry, looked up): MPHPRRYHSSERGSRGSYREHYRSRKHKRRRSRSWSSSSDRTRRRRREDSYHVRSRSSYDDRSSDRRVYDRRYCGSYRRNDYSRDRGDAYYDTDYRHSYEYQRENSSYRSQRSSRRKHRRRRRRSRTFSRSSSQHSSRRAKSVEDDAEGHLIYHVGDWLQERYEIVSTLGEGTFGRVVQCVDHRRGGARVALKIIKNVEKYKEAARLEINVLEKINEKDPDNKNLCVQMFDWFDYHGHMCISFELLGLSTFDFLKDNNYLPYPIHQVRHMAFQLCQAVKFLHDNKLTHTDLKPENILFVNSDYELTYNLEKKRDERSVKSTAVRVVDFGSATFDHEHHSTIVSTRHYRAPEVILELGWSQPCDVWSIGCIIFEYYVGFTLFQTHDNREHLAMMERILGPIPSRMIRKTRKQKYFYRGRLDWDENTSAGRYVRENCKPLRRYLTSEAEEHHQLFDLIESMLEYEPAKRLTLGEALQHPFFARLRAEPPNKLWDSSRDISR
Chain of Activin receptor type-2A (Homo sapiens) (P27037 whole entry): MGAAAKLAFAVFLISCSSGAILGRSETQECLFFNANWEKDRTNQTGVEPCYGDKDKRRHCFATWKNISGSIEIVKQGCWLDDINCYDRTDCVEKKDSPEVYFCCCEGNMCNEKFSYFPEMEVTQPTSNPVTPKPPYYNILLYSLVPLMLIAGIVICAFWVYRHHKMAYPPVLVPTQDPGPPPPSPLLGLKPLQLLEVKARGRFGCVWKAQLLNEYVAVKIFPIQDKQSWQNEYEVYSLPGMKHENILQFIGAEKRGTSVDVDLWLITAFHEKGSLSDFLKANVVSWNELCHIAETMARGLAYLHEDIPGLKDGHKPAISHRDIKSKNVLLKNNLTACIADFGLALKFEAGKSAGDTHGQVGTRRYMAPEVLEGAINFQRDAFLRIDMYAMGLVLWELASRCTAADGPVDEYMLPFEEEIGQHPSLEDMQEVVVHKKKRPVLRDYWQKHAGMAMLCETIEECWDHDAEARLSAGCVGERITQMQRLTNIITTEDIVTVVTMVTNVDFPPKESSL
Chain of Serine/threonine-protein kinase PLK2 (Homo sapiens) (Q9NYY3 whole entry, looked up): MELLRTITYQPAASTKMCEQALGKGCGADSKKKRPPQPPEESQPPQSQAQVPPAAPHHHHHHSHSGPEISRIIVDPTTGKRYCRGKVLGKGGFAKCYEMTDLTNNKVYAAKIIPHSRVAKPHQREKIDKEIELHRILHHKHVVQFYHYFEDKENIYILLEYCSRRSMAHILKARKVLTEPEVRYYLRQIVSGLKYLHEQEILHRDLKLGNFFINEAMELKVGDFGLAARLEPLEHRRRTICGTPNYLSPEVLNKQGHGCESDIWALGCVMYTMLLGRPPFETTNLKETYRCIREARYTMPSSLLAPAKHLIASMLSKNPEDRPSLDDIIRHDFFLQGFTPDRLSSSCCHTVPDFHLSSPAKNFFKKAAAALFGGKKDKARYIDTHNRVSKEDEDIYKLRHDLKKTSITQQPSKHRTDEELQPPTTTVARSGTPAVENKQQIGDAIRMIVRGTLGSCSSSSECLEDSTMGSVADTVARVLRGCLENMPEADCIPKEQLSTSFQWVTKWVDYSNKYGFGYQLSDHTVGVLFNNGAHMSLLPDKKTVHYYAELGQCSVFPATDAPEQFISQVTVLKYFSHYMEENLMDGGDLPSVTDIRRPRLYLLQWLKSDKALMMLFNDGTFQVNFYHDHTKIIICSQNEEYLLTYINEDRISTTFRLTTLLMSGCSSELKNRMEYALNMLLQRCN
Chain of Serine/threonine-protein kinase OSR1 (Homo sapiens) (O95747 2-527 limits assumed): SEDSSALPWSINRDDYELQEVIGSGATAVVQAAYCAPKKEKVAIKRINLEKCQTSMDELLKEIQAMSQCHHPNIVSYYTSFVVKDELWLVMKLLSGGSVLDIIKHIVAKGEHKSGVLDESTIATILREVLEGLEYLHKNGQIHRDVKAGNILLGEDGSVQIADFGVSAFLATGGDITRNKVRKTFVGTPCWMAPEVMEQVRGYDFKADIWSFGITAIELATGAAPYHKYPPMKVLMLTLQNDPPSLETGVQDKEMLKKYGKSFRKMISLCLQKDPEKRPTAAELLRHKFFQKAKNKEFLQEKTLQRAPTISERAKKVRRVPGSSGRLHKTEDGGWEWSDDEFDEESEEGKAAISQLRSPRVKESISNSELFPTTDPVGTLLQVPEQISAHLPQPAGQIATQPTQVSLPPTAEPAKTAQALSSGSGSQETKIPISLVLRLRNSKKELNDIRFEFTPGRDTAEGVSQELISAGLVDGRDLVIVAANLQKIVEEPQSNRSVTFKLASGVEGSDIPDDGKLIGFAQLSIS

## CC(C)CC(=O)N1CCc2nc(-c3ccc(Br)cc3)nc(N(C)Cc3ccccc3)c2C1 [THPP-1-NC]
[1]
  Ki: 0.708 µM
[2]
  Ki: > 25.3 µM (not active)
[3]
  Ki: 8.8 µM (not active)
[4]
  residual activity: 100%
[5]
  residual activity: 97%
[6]
  residual activity: 100%
[7]
  residual activity: 64%
[8]
  residual activity: 100%
[9]
  residual activity: 91%
[10]
  residual activity: 93%
[11]
  residual activity: 100%
[12]
  residual activity: 100%
[13]
  residual activity: 100%
[14]
  residual activity: 100%
[15]
  residual activity: 100%
[16]
  residual activity: 100%
[17]
  residual activity: 100%
[18]
  residual activity: 100%
[19]
  residual activity: 87%
[20]
  residual activity: 94%
[21]
  residual activity: 74%
[22]
  residual activity: 82%
[23]
  residual activity: 100%
[24]
  residual activity: 100%
[25]
  residual activity: 100%
[26]
  residual activity: 100%
[27]
  residual activity: 98%
[28]
  residual activity: 100%
[29]
  residual activity: 100%
[30]
  residual activity: 100%
[31]
  residual activity: 100%
[32]
  residual activity: 100%
[33]
  residual activity: 100%
[34]
  residual activity: 100%
[35]
  residual activity: 100%
[36]
  residual activity: 100%
[37]
  residual activity: 100%
[38]
  residual activity: 94%
[39]
  residual activity: 100%
[40]
  residual activity: 75%
[41]
  residual activity: 99%
[42]
  residual activity: 100%
[43]
  residual activity: 100%
[44]
  residual activity: 100%
[45]
  inhibition: 17.5%

## COCCOc1nc(-c2ccc(Cl)nc2)nc2c1CN(C(=O)c1ncn3ccccc13)CC2 [THPP-1]
[1]
  Ki: 3.35 µM
[2]
  Ki: 11.2 µM (not active)
[3]
  Ki: 0.298 µM (not active)
[4]
  residual activity: 100%
[5]
  residual activity: 98%
[6]
  residual activity: 93%
[7]
  residual activity: 47%
[8]
  residual activity: 100%
[9]
  residual activity: 84%
[10]
  residual activity: 82%
[11]
  residual activity: 100%
[12]
  residual activity: 100%
[13]
  residual activity: 100%
[14]
  residual activity: 100%
[15]
  residual activity: 100%
[16]
  residual activity: 100%
[17]
  residual activity: 100%
[18]
  residual activity: 100%
[19]
  residual activity: 72%
[20]
  residual activity: 83%
[21]
  residual activity: 61%
[22]
  residual activity: 82%
[23]
  residual activity: 87%
[24]
  residual activity: 100%
[25]
  residual activity: 100%
[26]
  residual activity: 100%
[27]
  residual activity: 75%
[28]
  residual activity: 100%
[29]
  residual activity: 100%
[30]
  residual activity: 100%
[31]
  residual activity: 100%
[32]
  residual activity: 100%
[33]
  residual activity: 100%
[34]
  residual activity: 100%
[35]
  residual activity: 100%
[36]
  residual activity: 97%
[37]
  residual activity: 100%
[38]
  residual activity: 100%
[39]
  residual activity: 100%
[40]
  residual activity: 68%
[41]
  residual activity: 100%
[42]
  residual activity: 100%
[43]
  residual activity: 100%
[44]
  residual activity: 100%
[45]
  inhibition: 10.8%
